Data set [1] addresses class A β-lactamases TEM-1 from E. coli (Escherichia coli, UniProt P62593). The experiment in a line: β-Lactamase inhibition, spectrophotometric nitrocefin hydrolysis assay, TEM-1. The data set is classed as biochemical. As to conditions: enzyme 4.3 nM; 10 minutes preincubation at 25° C.; nitrocefin 50 μg/ml; 50 mM PO4, pH 7.0. Here is the method: (§1) IC50 Determination for the Penem Inhibitor
(§2) β-Lactamase inhibitory activity of the penem inhibitors was determined spectrophotometrically as described by Bush et al., [Bush, K., Macalintal, C., Rasmussen, B. A., Lee, V. and Yang, Y. Antimicrobial Agents and Chemotherapy 1993, 37, 851]. Homogeneously purified class A β-lactamases TEM-1 from E. coli and Imi-1 from Enterobacter cloacae, class B enzyme CcrA from Bacteroides fragilis and class C enzyme AmpC from Enterobacter cloaca were employed in the assay. The enzyme concentrations for TEM-1, Imi-1, CcrA and AmpC were 4.3, 7.1, 1.2 and 2.1 nM, respectively. A wide range of inhibitor concentrations were prepared in 50 mM PO4, pH 7.0 to include the possible IC50 values. The substrate used to initiate the enzyme reaction was nitrocefin at 50 μg/ml in the same buffer as the inhibitor. Initially the enzyme and inhibitor (20 μl each) were preincubated for 10 minutes at 25° C. prior to the addition of 160 μl volume of nitrocefin. Initial rates of hydrolysis were monitored for 5 minutes at 495 nm using a Molecular Devices Spectra Max 250 with kinetic protocol of SoftMax Program. Readings from the Spectra Max 250 were exported and transferred to Microsoft Excel. The percent of inhibition of each inhibitor concentration was calculated based on the control enzyme activity. The inhibitor concentration that caused a 50% reduction in the enzymatic activity (IC50) was determined graphically.

Data set [2] deals with class A β-lactamase Imi-1 from Enterobacter cloacae (Enterobacter cloacae, UniProt Q46991). The experiment in a line: β-Lactamase inhibition, spectrophotometric nitrocefin hydrolysis assay, Imi-1. The data set is classed as biochemical. As to conditions: enzyme 7.1 nM; 10 minutes preincubation at 25° C.; nitrocefin 50 μg/ml; 50 mM PO4, pH 7.0. Here is the method: as §1, §2

Data set [3] has as its target class B enzyme CcrA from Bacteroides fragilis (Bacteroides fragilis, UniProt P25910). The experiment in a line: β-Lactamase inhibition, spectrophotometric nitrocefin hydrolysis assay, CcrA. The data set is classed as biochemical. The settings on record: enzyme 1.2 nM; 10 minutes preincubation at 25° C.; nitrocefin 50 μg/ml; 50 mM PO4, pH 7.0; read-out: IC50 (nM) Ccr-A. Here is the method:
as §1, §2

In data set [4] the target is class C enzyme AmpC from Enterobacter cloaca (Enterobacter cloacae, UniProt P05364). The experiment in a line: β-Lactamase inhibition, spectrophotometric nitrocefin hydrolysis assay, AmpC. As to conditions: enzyme 2.1 nM; 10 minutes preincubation at 25° C.; nitrocefin 50 μg/ml; 50 mM PO4, pH 7.0; read-out: IC50 (nM) Amp-C. The data set is classed as biochemical. How it is done:
as §1, §2

Data set [5] can be described thus: Comparative thermal stability in a solid state, residual ratio checked by HPLC. The data set is classed as physicochemical. The settings on record: for Residual Ratio (%): Temp. 40° C. in a solid state, HPLC. The source says: One important aspect of the present invention relates to the use of stable bromopenem intermediate 16. The stability of the intermediate is relevant to the aldol condensation step where the decomposition is minimized [as well as to the shelf life stability]. In this invention the key intermediate 16, where R=para-Nitrobenzyl group is a stable and a crystalline intermediate. […] (Table 1) This remarkable stability of intermediate 16 enhances the shelf-life time of the compound as well as the scale-up feasibility. As mentioned above, protection of carboxyl group with para-Nitrobenzyl group reduces the number of steps in the present process of preparing the final compound of structure I. The crystalline nature of the intermediate was established by X-ray diffraction studies.
Column: Inertsil SIL 100-5 4.6×150 mm (GL Science Inc.)
Mobile phase; Ethylacetae: n-hexane (10:35 vv)
Wave length: […]; Flow rate: 1.0 ml/min @ Room temperature.

These results are taken from patent publication US20040053913A1, “Process for preparing 6-alkylidene penem derivatives” (priority 2002, published 2004).

Structures can show the parent of a compound that is named as a salt.

As a reminder, the IC50 is the point on the concentration scale where inhibition reaches its midpoint.

Chain of class C enzyme AmpC from Enterobacter cloaca (P05364 21-381): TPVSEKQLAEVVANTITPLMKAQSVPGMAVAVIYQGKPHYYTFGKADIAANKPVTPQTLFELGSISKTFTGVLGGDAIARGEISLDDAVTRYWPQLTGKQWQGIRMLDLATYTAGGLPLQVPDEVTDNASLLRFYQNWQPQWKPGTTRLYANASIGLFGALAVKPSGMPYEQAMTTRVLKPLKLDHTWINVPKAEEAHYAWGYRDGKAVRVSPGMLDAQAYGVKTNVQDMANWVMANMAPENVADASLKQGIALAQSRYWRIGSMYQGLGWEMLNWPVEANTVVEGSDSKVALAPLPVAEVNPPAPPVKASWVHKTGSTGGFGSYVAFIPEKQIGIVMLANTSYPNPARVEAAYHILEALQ
Chain of class A β-lactamases TEM-1 from E. coli (P62593 24-286 limits assumed): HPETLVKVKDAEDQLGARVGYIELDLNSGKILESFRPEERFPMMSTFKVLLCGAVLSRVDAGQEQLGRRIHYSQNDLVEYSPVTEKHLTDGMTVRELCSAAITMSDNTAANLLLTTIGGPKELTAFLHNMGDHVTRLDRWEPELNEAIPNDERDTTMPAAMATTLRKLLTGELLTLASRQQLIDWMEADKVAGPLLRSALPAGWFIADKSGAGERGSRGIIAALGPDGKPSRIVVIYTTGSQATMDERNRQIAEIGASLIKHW
Chain of class B enzyme CcrA from Bacteroides fragilis (P25910 19-249): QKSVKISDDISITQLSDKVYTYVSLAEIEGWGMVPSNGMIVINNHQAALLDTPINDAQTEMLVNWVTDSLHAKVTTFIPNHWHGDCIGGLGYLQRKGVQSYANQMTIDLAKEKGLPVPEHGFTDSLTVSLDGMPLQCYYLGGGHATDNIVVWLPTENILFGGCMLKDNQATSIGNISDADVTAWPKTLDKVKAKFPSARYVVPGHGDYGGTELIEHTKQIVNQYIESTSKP
Chain of class A β-lactamase Imi-1 from Enterobacter cloacae (Q46991 entry or part of it): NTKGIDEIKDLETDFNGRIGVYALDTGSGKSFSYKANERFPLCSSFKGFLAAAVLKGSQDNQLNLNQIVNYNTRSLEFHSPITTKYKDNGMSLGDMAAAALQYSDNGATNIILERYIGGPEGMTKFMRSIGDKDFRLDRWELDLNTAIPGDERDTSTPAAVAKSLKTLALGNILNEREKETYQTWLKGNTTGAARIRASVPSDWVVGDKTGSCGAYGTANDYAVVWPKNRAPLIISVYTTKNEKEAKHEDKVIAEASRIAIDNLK

In the case of `O=C(O)C1=CS[C@@H]2/C(=C\c3c[nH]c(Cc4ccccc4)n3)C(=O)N12` [Example 3, (5R), (6Z)-6-(2-Benzyl-1H-imidazol-4-ylmethylene)-7-oxo-4-thia-1-aza-bicyclo[3.2.0]hept-2-ene-2-carboxylic Acid Sodium Salt], the half-inhibitory concentration (IC50) was 1.2 nM in data set [1], 1300 nM in data set [2], 190 nM in data set [3] and 0.8 nM in data set [4].

For `O=C(O)C1=CS[C@@H]2/C(=C\c3c[nH]c(-c4nccs4)n3)C(=O)N12` [Example 4, (5R), (6Z)-6-(2-thiazol-2-yl-1H-imidazol-4-ylmethylene)-7-oxo-4-thia-1-aza-bicyclo[3.2.0]hept-2-ene-2-carboxylic Acid Sodium Salt], the 50% inhibitory concentration (IC50) in data set [1] amounted to 0.4 nM; in data set [2] it was 5.8 nM; in data set [3], 230 nM; in data set [4] it was 2.3 nM.

On to `O=C(O)C1=CS[C@@H]2/C(=C\c3c[nH]c(-c4ccccc4)n3)C(=O)N12` [Example 6, (5R), (6Z)-6-(2-phenyl-1H-imidazol-4-ylmethylene)-7-oxo-4-thia-1-aza-bicyclo[3.2.0]hept-2-ene-2-carboxylic Acid], for which the IC50 in data set [1] is 5.6 nM; in data set [2], 11 nM; in data set [3] it was 220 nM; in data set [4], 2.9 nM.

Turning to `O=C(OCc1ccc([N+](=O)[O-])cc1)C1=CS[C@@H]2[C@@H](Br)C(=O)N12` [Example 16], the “comparative thermal stability (in words)” value in data set [5] (intermediate 16 versus intermediate Q) was “more stable than the intermediate Q”.

Consider `O=C(OCc1ccc([N+](=O)[O-])cc1)C1=CS[C@@H]2[C@@H](Br)C(=O)N12` [Formula 16, 4-nitrobenzyl (5R,6S)-6-bromopenem-3-carboxylate], for which the “Residual Ratio (%)” value in data set [5] (Day 0) is 100.0%; in data set [5] (Day 1) it was 100.0%; in data set [5] (Day 2), 100.0%; in data set [5] (Day 4) it was 100.0%; in data set [5] (Day 7), 98.7%; in data set [5] (Day 14), 98.4%.

`COc1ccc(COC(=O)C2=CS[C@@H]3[C@@H](Br)C(=O)N23)cc1` [Formula Q, reference compound]: the “Residual Ratio (%)” value in data set [5] (Day 0) stood at 100.0%; in data set [5] (Day 1), 99.7%; in data set [5] (Day 2), 95.3%; in data set [5] (Day 4), 72.9%; in data set [5] (Day 7), 69.8%.

Regarding “(5R), (6Z)-6-(1-Methyl-2-thiazol-2-yl-1H-imidazol-4-ylmethylene)-7-oxo-4-thia-1-aza-bicyclo[3.2.0]hept-2-ene-2-carboxylic Acid Sodium Salt [Example 5]”, the IC50 in data set [1] is 5.2 nM; in data set [2], 68 nM; in data set [3] it was 260 nM; in data set [4], 5.6 nM.

In the case of “(5R), (6Z)-6-(3,1′-Dimethyl-3H,1′H-[2,4′]biimidazolyl-4-ylmethylene)-7-oxo-4-thia-1-aza-bicyclo[3.2.0]hept-2-ene-2-carboxylic Acid Sodium Salt [Example 2]”, the IC50 in data set [1] was found to be 4.1 nM; in data set [2], 6 nM; in data set [3] it was 250 nM; in data set [4], 2.1 nM.
